From US9586956B2, “Isoquinoline and naphthyridine derivatives” (Genentech, Inc., priority 2012, dated 2017)

molecular target: T1, purified human MAP4K4 kinase domain (Homo sapiens, UniProt O95819); experiment: MAP4K4 Inhibition Assay Protocol No. 1 (Caliper LabChip, moesin-derived peptide phosphorylation); assay type: biochemical; conditions: Assay 1; 1 nM enzyme, 10 uM ATP, 45 min
T1 construct: purified human MAP4K4 kinase domain
Protocol: The kinase activity of purified human MAP4K4 kinase domain was measured by monitoring the phosphorylation of a peptide substrate derived from moesin protein (Leu-Gly-Arg-Asp-Lys-Tyr-Lys-Thr-Leu-Arg-Gln-Ile-Arg-Gln) fluorescently labeled on the N-terminus with 5-carboxyfluorescein using the Caliper LabChip technology (Caliper Life Sciences, Hopkinton, Mass.). To determine inhibition constants (IC50), compounds were serially diluted in DMSO and added to 10 uL kinase reactions containing 1 nM purified MAP4K4 enzyme, 1 uM peptide substrate, 10 uM ATP, 10 mM MgCl2, 1 mM EGTA, 50 mM Hepes pH 7.2, 1 mM DTT, 0.01% Triton X-100, and 2% DMSO. Reactions were incubated at room temperature in Perkin Elmer Proxiplates for 45 minutes and stopped by the addition of 10 uL of an EDTA-containing solution (50 mM Hepes pH 7.2, 40 mM EDTA, 0.02% Triton X-100). The fraction of phosphorylated peptide was determined as a fraction of total peptide substrate using the Caliper Lab Chip 3000 according to the manufacturer's instructions. IC50 values were determined using the four-parameter non-linear fit model.

T1 sequence (O95819 25-289 limits assumed): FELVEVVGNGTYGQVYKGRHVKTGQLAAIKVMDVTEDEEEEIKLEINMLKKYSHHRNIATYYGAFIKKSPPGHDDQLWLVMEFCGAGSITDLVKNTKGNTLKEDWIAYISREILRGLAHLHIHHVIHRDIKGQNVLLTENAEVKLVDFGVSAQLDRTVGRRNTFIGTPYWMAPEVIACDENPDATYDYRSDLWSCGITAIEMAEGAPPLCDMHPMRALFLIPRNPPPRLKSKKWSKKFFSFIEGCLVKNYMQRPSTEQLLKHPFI

IC50 [µM] | SMILES
0.651 | CN1CCC(NC(=O)c2cnc(N)c3cc(-c4cccc(F)c4)ccc23)CC1 [Example 67, 1-amino-7-(3-fluorophenyl)-N-(1-methyl-4-piperidyl) isoquinoline-4-carboxamide]
0.12 | Nc1ncc(C(=O)NC2CCOCC2)c2ccc(-c3cccc(F)c3)cc12 [Example 68, 1-amino-7-(3-fluorophenyl)-N-tetrahydropyran-4-yl-isoquinoline-4-carboxamide]
0.35 | Nc1ncc(C(=O)NCCN2CCC(O)CC2)c2ccc(-c3cccc(F)c3)cc12 [Example 69, 1-amino-7-(3-fluorophenyl)-N-[2-(4-hydroxy-1-piperidyl)ethyl] isoquinoline-4-carboxamide]
0.0852 | Nc1ncc(C(=O)NC2CCCC(O)C2)c2ccc(-c3cccc(F)c3)cc12 (stereo not shown) [Example 70, 1-amino-7-(3-fluorophenyl)-N-(3-hydroxycyclohexyl) isoquinoline-4-carboxamide]
0.0395 | CNC(=O)c1cnc(N)c2cc(-c3cccc(F)c3)ccc12 [Example 74, 1-amino-7-(3-fluorophenyl)-N-methyl-isoquinoline-4-carboxamide]
0.0148 | COc1ccc(NC(=O)c2cnc(N)c3cc(-c4cccc(F)c4)ccc23)cc1 [Example 75, 1-amino-7-(3-fluorophenyl)-N-(4-methoxyphenyl) isoquinoline-4-carboxamide]
0.245 | Nc1ncc(C(=O)NCCN2CCS(=O)(=O)CC2)c2ccc(-c3cccc(F)c3)cc12 [Example 76, 1-amino-N-[2-(1,1-dioxo-1,4-thiazinan-4-yl)ethyl]-7-(3-fluorophenyl) isoquinoline-4-carboxamide]
0.507 | Nc1ncc(C(=O)NCCN2CCCC2=O)c2ccc(-c3cccc(F)c3)cc12 [Example 77, 1-amino-7-(3-fluorophenyl)-N-[2-(2-oxopyrrolidin-1-yl)ethyl]isoquinoline-4-carboxamide]
2.4 | CC(C)(N)CNC(=O)c1cnc(N)c2cc(-c3cccc(F)c3)ccc12 [Example 78, 1-amino-N-(2-amino-2-methyl-propyl)-7-(3-fluorophenyl) isoquinoline-4-carboxamide]
0.25 | CC(=O)NCCNC(=O)c1cnc(N)c2cc(-c3cccc(F)c3)ccc12 [Example 80, N-(2-acetamidoethyl)-1-amino-7-(3-fluorophenyl) isoquinoline-4-carboxamide]
0.138 | Nc1ncc(C(=O)NCC(=O)N2CCOCC2)c2ccc(-c3cccc(F)c3)cc12 [Example 81, 1-amino-7-(3-fluorophenyl)-N-(2-morpholino-2-oxo-ethyl)isoquinoline-4-carboxamide]
0.148 | Nc1ncc(C(=O)NCCN2CCNC2=O)c2ccc(-c3cccc(F)c3)cc12 [Example 82, 1-amino-7-(3-fluorophenyl)-N-[2-(2-oxoimidazolidin-1-yl)ethyl]isoquinoline-4-carboxamide]
0.217 | CN1CCN(CCNC(=O)c2cnc(N)c3cc(-c4cccc(F)c4)ccc23)CC1 [Example 83, 1-amino-7-(3-fluorophenyl)-N-[2-(4-methylpiperazin-1-yl)ethyl]isoquinoline-4-carboxamide]
0.557 | C[C@@H](NC(=O)c1cnc(N)c2cc(-c3cccc(F)c3)ccc12)C(N)=O [Example 84, 1-amino-N-[(1R)-2-amino-1-methyl-2-oxo-ethyl]-7-(3-fluorophenyl) isoquinoline-4-carboxamide]
0.363 | C[C@H](NC(=O)c1cnc(N)c2cc(-c3cccc(F)c3)ccc12)C(N)=O [Example 85, 1-amino-N-[(1S)-2-amino-1-methyl-2-oxo-ethyl]-7-(3-fluorophenyl) isoquinoline-4-carboxamide]
0.0081 | CN1CCC(Oc2ccc(NC(=O)c3cnc(N)c4cc(-c5cccc(F)c5)ccc34)cc2)CC1 [Example 86, 1-amino-7-(3-fluorophenyl)-N-[4-[(1-methyl-4-piperidyl)oxy]phenyl] isoquinoline-4-carboxamide]
